Experimental data published in patent US20030175745A1, “Peptides with growth inhibitory action” (priority 2001, published 2003).
Where a SMILES comes first, the peptide text is derived from it.

Columns and labels:
PDGF-R = settings: in the μM range; cited from earlier work
PDGF β receptor = PDGF β receptor (Homo sapiens, UniProt P09619); settings: cited from earlier work
α-type PDGF-R = α-type PDGF-R (Homo sapiens, UniProt P16234); settings: high concentrations; cited from earlier work
NIH3T3-PDGF-ββ cells = experiment: Growth assay with NIH3T3-PDGF-ββ cells, cell number by PicoGreen DNA; format: cell-based; settings: for inhibition compared to the base medium (BITS): Example 4 (Table 2); for % of control cell growth: 5 days, BITS medium
Experimental: NIH 3T3 cells transfected with PDGF-ββ (a stable cell line) were obtained from Mount Sinai School of Medicine. These cells overexpress PDGF-ββ and are activated via the PDGF-R in an autocrine fashion. Cells were grown at 37° C. in Dulbecco's Modified Eagles Medium (high glucose) (DMEM) with 10% heat-inactivated fetal calf serum (FCS) with 100 units or μg/ml penicillin/streptomycin with 750 μg/ml G418 sulfate (Geneticin) selection. Cells were incubated in an atmosphere of 5% CO2, and cultures were fed twice weekly. For subcultivation, cells were allowed to attain confluence and washed twice with PBS or Hank's balanced salt solution (minus Ca^++ and Mg^++) before addition of a trypsin/EDTA solution to dislodge the cells. Cells were split anywhere from ¼ to 1/12 into a sterile T-75 Flask depending on the time desired until confluence.
To identify peptides that inhibit cell growth in culture, candidate peptides were screened in a growth assay with NIH3T3-PDGF-ββ cells. Cells were expanded in DMEM containing G418 as described above. […] Growth medium was removed and the peptide solution added (250 μl/well). Cells were incubated for 5 days without feeding prior to testing. After this time, growth of cells treated with each peptide was compared to growth in control medium (no peptide added).
Cell number was assessed by measurement of total cellular double-stranded DNA using the PicoGreen Assay Kit (Molecular Probes, Eugene, Oreg., USA, lot #6405-1). For PicoGreen analysis, cell lysates (100 μl ) were added to 100 µl of the dye solution prepared by diluting the PicoGreen dye (1:200 in 1× TE according to the manufacturer's instructions). Plates were read after five minutes in a fluorimeter (irradiated at an excitation wavelength of 485 nm). Fluorescence emission was measured at 530 nm using a CytoFluor Series 4000 (PerSeptive Biosystems, Framingham, Mass.). For correlating DNA level to cell number, a standard curve was established for the NIH3T3-PDGF-ββ cells. For analysis, DNA absorbance/emission was compared to the absorbance/emission shown by a standard curve of DNA.

PDGF β receptor, sequence (P09619 33-1106): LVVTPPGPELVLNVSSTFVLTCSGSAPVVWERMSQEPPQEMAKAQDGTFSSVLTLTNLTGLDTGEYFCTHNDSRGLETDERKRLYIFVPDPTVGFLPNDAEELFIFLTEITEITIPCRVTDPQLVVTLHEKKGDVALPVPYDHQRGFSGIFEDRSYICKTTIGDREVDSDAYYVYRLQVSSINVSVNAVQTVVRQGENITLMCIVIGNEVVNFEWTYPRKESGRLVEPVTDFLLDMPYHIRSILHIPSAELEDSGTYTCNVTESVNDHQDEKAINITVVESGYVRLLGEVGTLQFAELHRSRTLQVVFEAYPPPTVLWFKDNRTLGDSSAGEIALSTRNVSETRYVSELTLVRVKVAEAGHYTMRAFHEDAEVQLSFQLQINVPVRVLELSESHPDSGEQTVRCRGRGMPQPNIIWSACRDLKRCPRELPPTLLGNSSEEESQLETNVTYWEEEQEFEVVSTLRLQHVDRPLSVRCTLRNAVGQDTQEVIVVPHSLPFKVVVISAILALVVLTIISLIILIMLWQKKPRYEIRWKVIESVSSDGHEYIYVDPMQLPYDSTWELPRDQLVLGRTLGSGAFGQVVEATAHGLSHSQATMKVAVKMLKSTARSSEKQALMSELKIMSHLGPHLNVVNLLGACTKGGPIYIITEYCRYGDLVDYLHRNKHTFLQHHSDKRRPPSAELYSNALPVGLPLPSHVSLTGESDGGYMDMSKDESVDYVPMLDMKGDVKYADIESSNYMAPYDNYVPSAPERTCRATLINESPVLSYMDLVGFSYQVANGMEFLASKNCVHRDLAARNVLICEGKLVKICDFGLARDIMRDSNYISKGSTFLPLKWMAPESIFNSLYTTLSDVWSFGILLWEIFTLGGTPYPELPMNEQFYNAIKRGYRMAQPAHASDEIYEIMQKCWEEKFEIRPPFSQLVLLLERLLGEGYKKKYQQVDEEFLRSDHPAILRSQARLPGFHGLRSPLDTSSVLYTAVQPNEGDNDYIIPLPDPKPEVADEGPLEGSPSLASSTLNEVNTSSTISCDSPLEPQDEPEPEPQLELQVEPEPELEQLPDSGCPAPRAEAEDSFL
α-type PDGF-R, sequence (P16234 24-1089): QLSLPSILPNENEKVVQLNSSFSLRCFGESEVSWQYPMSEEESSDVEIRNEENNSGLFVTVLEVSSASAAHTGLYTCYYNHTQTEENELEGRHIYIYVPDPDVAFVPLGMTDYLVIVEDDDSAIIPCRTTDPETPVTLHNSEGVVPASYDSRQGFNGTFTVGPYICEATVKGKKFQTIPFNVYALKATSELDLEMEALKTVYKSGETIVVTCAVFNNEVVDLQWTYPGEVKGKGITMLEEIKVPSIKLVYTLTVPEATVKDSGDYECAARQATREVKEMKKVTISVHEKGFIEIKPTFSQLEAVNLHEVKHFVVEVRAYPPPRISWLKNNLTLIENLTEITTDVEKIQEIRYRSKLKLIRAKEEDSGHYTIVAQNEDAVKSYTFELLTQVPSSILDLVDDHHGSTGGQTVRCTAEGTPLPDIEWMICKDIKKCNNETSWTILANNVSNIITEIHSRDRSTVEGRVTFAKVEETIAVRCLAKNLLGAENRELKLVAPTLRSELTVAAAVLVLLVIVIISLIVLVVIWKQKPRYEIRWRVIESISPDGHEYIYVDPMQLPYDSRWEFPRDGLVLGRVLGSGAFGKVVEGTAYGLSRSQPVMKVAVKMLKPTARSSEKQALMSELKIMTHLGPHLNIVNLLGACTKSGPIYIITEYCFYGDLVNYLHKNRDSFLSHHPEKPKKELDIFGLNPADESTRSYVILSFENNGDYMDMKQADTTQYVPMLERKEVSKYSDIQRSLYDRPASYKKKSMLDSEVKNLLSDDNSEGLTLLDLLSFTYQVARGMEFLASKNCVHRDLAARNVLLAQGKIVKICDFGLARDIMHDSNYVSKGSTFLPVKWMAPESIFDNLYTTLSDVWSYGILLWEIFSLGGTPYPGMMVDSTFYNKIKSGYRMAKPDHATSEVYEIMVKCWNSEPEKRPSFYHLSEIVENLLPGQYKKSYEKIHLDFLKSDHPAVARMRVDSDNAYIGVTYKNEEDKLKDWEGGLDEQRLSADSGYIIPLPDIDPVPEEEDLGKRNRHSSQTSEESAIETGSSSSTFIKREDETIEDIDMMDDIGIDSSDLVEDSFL

## Cc1ccc(C(=O)Nc2ccc(S(=O)(=O)O)c3cc(S(=O)(=O)O)cc(S(=O)(=O)O)c23)cc1NC(=O)c1cccc(NC(=O)Nc2cccc(C(=O)Nc3cc(C(=O)Nc4ccc(S(=O)(=O)O)c5cc(S(=O)(=O)O)cc(S(=O)(=O)O)c45)ccc3C)c2)c1 [suramin]
PDGF-R
  inhibition of PDGF binding to PDGF R: 100%

## neomycin
PDGF β receptor
  inhibition of binding to the PDGF β receptor: not able to inhibit
α-type PDGF-R
  inhibition of binding of PDGF-ββ to the α-type PDGF-R: inhibited

## DDEEK (printed: ASP ASP GLU GLU LYS) [pentapeptide ASP ASP GLU GLU LYS, from Bachem]
NIH3T3-PDGF-ββ cells
  growth inhibition in the initial screen of the library: inhibiting growth
NIH3T3-PDGF-ββ cells; 6 mM
  relative potency in inhibiting cell growth: most potent inhibitor
NIH3T3-PDGF-ββ cells; 6 mM peptide
  inhibition compared to the base medium (BITS): 91%
NIH3T3-PDGF-ββ cells; 12 mM peptide
  inhibition compared to the base medium (BITS): 84%
NIH3T3-PDGF-ββ cells; Table 2, 1 mM peptide
  % of control cell growth: 108%
NIH3T3-PDGF-ββ cells; Table 2, 3 mM peptide
  % of control cell growth: 93%
NIH3T3-PDGF-ββ cells; Table 2, 6 mM peptide
  % of control cell growth: 11%
NIH3T3-PDGF-ββ cells; Table 2, 12 mM peptide
  % of control cell growth: 16%

## NCCCC[C@H](NC(=O)[C@H](CCCCN)NC(=O)[C@H](CCCCN)NC(=O)[C@@H](N)CCCCN)C(=O)O [KKKK] (H-KKKK-OH)
NIH3T3-PDGF-ββ cells; Example 3, KKKK (Bachem) 3 mM
  inhibition of cell growth compared to control medium (BITS): 21%
NIH3T3-PDGF-ββ cells; Example 3, KKKK (Bachem) 6 mM
  inhibition of cell growth compared to control medium (BITS): 36%
NIH3T3-PDGF-ββ cells; 6 mM peptide
  inhibition compared to the base medium (BITS): 59%
NIH3T3-PDGF-ββ cells; 12 mM peptide
  inhibition compared to the base medium (BITS): 82%
NIH3T3-PDGF-ββ cells; Table 1, KKKK (Bachem) 3 mM
  % of control cell growth: 78%
NIH3T3-PDGF-ββ cells; Table 1, KKKK (Bachem) 6 mM
  % of control cell growth: 65%
NIH3T3-PDGF-ββ cells; Table 1, KKKK (Bachem) 12 mM
  % of control cell growth: 39%
NIH3T3-PDGF-ββ cells; Table 2, 1 mM peptide
  % of control cell growth: 105%
NIH3T3-PDGF-ββ cells; Table 2, 3 mM peptide
  % of control cell growth: 72%
NIH3T3-PDGF-ββ cells; Table 2, 6 mM peptide
  % of control cell growth: 41%
NIH3T3-PDGF-ββ cells; Table 2, 12 mM peptide
  % of control cell growth: 17%

## FFFKK (printed: PHE PHE PHE LYS LYS) [pentapeptide PHE PHE PHE LYS LYS, from Bachem]
NIH3T3-PDGF-ββ cells
  growth inhibition in the initial screen of the library: inhibiting growth
NIH3T3-PDGF-ββ cells; 6 mM peptide
  inhibition compared to the base medium (BITS): 29%
NIH3T3-PDGF-ββ cells; 12 mM peptide
  inhibition compared to the base medium (BITS): 82%
NIH3T3-PDGF-ββ cells; Table 2, 1 mM peptide
  % of control cell growth: 111%
NIH3T3-PDGF-ββ cells; Table 2, 3 mM peptide
  % of control cell growth: 103%
NIH3T3-PDGF-ββ cells; Table 2, 6 mM peptide
  % of control cell growth: 69%
NIH3T3-PDGF-ββ cells; Table 2, 12 mM peptide
  % of control cell growth: 18%

## KLMSY (printed: LYS LEU MET SER TYR) [pentapeptide LYS LEU MET SER TYR, from Bachem]
NIH3T3-PDGF-ββ cells
  growth inhibition in the initial screen of the library: inhibiting growth
NIH3T3-PDGF-ββ cells; 6 mM peptide
  inhibition compared to the base medium (BITS): 23%
NIH3T3-PDGF-ββ cells; 12 mM peptide
  inhibition compared to the base medium (BITS): 91%
NIH3T3-PDGF-ββ cells; Table 2, 1 mM peptide
  % of control cell growth: 127%
NIH3T3-PDGF-ββ cells; Table 2, 3 mM peptide
  % of control cell growth: 126%
NIH3T3-PDGF-ββ cells; Table 2, 6 mM peptide
  % of control cell growth: 76%
NIH3T3-PDGF-ββ cells; Table 2, 12 mM peptide
  % of control cell growth: 10%

## FFHPV (printed: PHE PHE HIS PRO VAL) [pentapeptide PHE PHE HIS PRO VAL, from Bachem]
NIH3T3-PDGF-ββ cells
  growth inhibition in the initial screen of the library: inhibiting growth
NIH3T3-PDGF-ββ cells; 6 mM peptide
  inhibition compared to the base medium (BITS): 14%
NIH3T3-PDGF-ββ cells; 9.5 mM peptide
  inhibition compared to the base medium (BITS): 82%
NIH3T3-PDGF-ββ cells; Table 2, 1 mM peptide
  % of control cell growth: 116%
NIH3T3-PDGF-ββ cells; Table 2, 3 mM peptide
  % of control cell growth: 111%
NIH3T3-PDGF-ββ cells; Table 2, 6 mM peptide
  % of control cell growth: 85%
NIH3T3-PDGF-ββ cells; Table 2, 9.5 mM peptide
  % of control cell growth: 16%
